Values joined by “and” are separate entries in the source; they are usually repeats but may differ in a detail not shown here. Equal entries are not always repeated. ± gives the expanded uncertainty stated by the source.
Conditions: 303.16 K, Liquid, Vibrating tube method

CCCCCCCCCC [decane]
Conditions	mass density
4941 kPa	726.2 ± 2 kg/m3
4955 kPa	726.3 ± 2 kg/m3
4969 kPa	726.3 ± 2 kg/m3
4979 kPa	726.4 ± 2 kg/m3
4994 kPa	726.4 ± 2 kg/m3
5007 kPa	726.3 ± 2 kg/m3
5019 kPa	726.4 ± 2 kg/m3
5029 kPa	726.4 ± 2 kg/m3
5041 kPa	726.3 ± 2 kg/m3
5052 kPa	726.3 ± 2 kg/m3
5065 kPa	726.4 ± 2 kg/m3
5075 kPa	726.5 ± 2 kg/m3
5091 kPa	726.4 ± 2 kg/m3
5107 kPa	726.5 ± 2 kg/m3
5119 kPa	726.6 ± 2 kg/m3
5129 kPa	726.5 ± 2 kg/m3
5140 kPa	726.5 ± 2 kg/m3
5153 kPa	726.4 ± 2 kg/m3
5167 kPa	726.5 ± 2 kg/m3
5177 kPa	726.4 ± 2 kg/m3
5193 kPa	726.4 ± 2 kg/m3
5209 kPa	726.4 ± 2 kg/m3
5220 kPa	726.6 ± 2 kg/m3
5236 kPa	726.5 ± 2 kg/m3
5251 kPa	726.5 ± 2 kg/m3
5261 kPa	726.5 ± 2 kg/m3
5276 kPa	726.5 ± 2 kg/m3
5292 kPa	726.5 ± 2 kg/m3
5309 kPa	726.5 ± 2 kg/m3
5318 kPa	726.4 ± 2 kg/m3
5331 kPa	726.6 ± 2 kg/m3
5342 kPa	726.7 ± 2 kg/m3
5359 kPa	726.6 ± 2 kg/m3
5374 kPa	726.6 ± 2 kg/m3
5385 kPa	726.6 ± 2 kg/m3
5399 kPa	726.5 ± 2 kg/m3
5412 kPa	726.5 ± 2 kg/m3
5427 kPa	726.7 ± 2 kg/m3
5443 kPa	726.6 ± 2 kg/m3
5459 kPa	726.7 ± 2 kg/m3
5473 kPa	726.7 ± 2 kg/m3
5488 kPa	726.8 ± 2 kg/m3
5501 kPa	726.6 ± 2 kg/m3
5514 kPa	726.8 ± 2 kg/m3
5532 kPa	726.8 ± 2 kg/m3
5548 kPa	726.7 ± 2 kg/m3
5562 kPa	726.8 ± 2 kg/m3
5576 kPa	726.8 ± 2 kg/m3
5593 kPa	726.8 ± 2 kg/m3
5607 kPa	726.8 ± 2 kg/m3
5626 kPa	726.8 ± 2 kg/m3
5642 kPa	726.8 ± 2 kg/m3
5655 kPa	726.8 ± 2 kg/m3
5674 kPa	726.9 ± 2 kg/m3
5690 kPa	726.9 ± 2 kg/m3
5705 kPa	726.8 ± 2 kg/m3
5723 kPa	727 ± 2 kg/m3
5738 kPa	726.9 ± 2 kg/m3
5751 kPa	726.9 ± 2 kg/m3
5770 kPa	727 ± 2 kg/m3
5791 kPa	727 ± 2 kg/m3
5803 kPa	726.9 ± 2 kg/m3
5819 kPa	727 ± 2 kg/m3
5834 kPa	726.9 ± 2 kg/m3
5851 kPa	726.9 ± 2 kg/m3
5864 kPa	727 ± 2 kg/m3
5873 kPa	727 ± 2 kg/m3
5878 kPa	727 ± 2 kg/m3
5884 kPa	727 ± 2 kg/m3
5887 kPa	727.1 ± 2 kg/m3
5896 kPa	727.1 ± 2 kg/m3
5908 kPa	727.1 ± 2 kg/m3
5926 kPa	727.1 ± 2 kg/m3
5940 kPa	727 ± 2 kg/m3
5954 kPa	727 ± 2 kg/m3
5971 kPa	727.1 ± 2 kg/m3
5986 kPa	727.1 ± 2 kg/m3
6008 kPa	727 ± 2 kg/m3
6029 kPa	727.1 ± 2 kg/m3
6044 kPa	727.2 ± 2 kg/m3
6063 kPa	727 ± 2 kg/m3
6080 kPa	727.3 ± 2 kg/m3
6100 kPa	727.2 ± 2 kg/m3
6118 kPa	727.1 ± 2 kg/m3
6139 kPa	727.3 ± 2 kg/m3
6161 kPa	727.3 ± 2 kg/m3
6178 kPa	727.2 ± 2 kg/m3
6196 kPa	727.2 ± 2 kg/m3
6201 kPa	727 ± 2 kg/m3
6204 kPa	727.3 ± 2 kg/m3
6205 kPa	727.3 ± 2 kg/m3
6209 kPa	727.3 ± 2 kg/m3
6210 kPa	727.2 ± 2 kg/m3
6211 kPa	727.3 ± 2 kg/m3
6212 kPa	727.3 ± 2 kg/m3
6213 kPa	727.3 ± 2 kg/m3
6214 kPa	727.2 ± 2 kg/m3
6215 kPa	727.3 ± 2 kg/m3 and 727.2 ± 2 kg/m3
6216 kPa	727.2 ± 2 kg/m3 and 727.3 ± 2 kg/m3 and 727.4 ± 2 kg/m3
6222 kPa	727.3 ± 2 kg/m3
6239 kPa	727.2 ± 2 kg/m3
6255 kPa	727.3 ± 2 kg/m3
6262 kPa	727.4 ± 2 kg/m3
6278 kPa	727.2 ± 2 kg/m3
6282 kPa	727.3 ± 2 kg/m3
6283 kPa	727.3 ± 2 kg/m3
6306 kPa	727.4 ± 2 kg/m3
6327 kPa	727.3 ± 2 kg/m3
6345 kPa	727.4 ± 2 kg/m3
6368 kPa	727.4 ± 2 kg/m3
6383 kPa	727.4 ± 2 kg/m3
6399 kPa	727.5 ± 2 kg/m3
6414 kPa	727.4 ± 2 kg/m3
6427 kPa	727.5 ± 2 kg/m3
6451 kPa	727.5 ± 2 kg/m3
6470 kPa	727.5 ± 2 kg/m3
6485 kPa	727.6 ± 2 kg/m3
6507 kPa	727.4 ± 2 kg/m3
6524 kPa	727.5 ± 2 kg/m3
6545 kPa	727.6 ± 2 kg/m3
6560 kPa	727.5 ± 2 kg/m3
6580 kPa	727.5 ± 2 kg/m3
6598 kPa	727.6 ± 2 kg/m3
6621 kPa	727.7 ± 2 kg/m3
6642 kPa	727.6 ± 2 kg/m3
6661 kPa	727.7 ± 2 kg/m3
6684 kPa	727.7 ± 2 kg/m3
6705 kPa	727.6 ± 2 kg/m3
6721 kPa	727.6 ± 2 kg/m3
6735 kPa	727.7 ± 2 kg/m3
6759 kPa	727.7 ± 2 kg/m3
6783 kPa	727.8 ± 2 kg/m3
6799 kPa	727.7 ± 2 kg/m3
6818 kPa	727.8 ± 2 kg/m3
6841 kPa	727.7 ± 2 kg/m3
6864 kPa	727.8 ± 2 kg/m3
6881 kPa	727.9 ± 2 kg/m3
6904 kPa	727.9 ± 2 kg/m3
6929 kPa	727.9 ± 2 kg/m3
6949 kPa	727.9 ± 2 kg/m3
6969 kPa	727.8 ± 2 kg/m3
6992 kPa	727.8 ± 2 kg/m3
7009 kPa	728 ± 2 kg/m3
7035 kPa	727.9 ± 2 kg/m3
7053 kPa	728 ± 2 kg/m3
7084 kPa	727.9 ± 2 kg/m3
7102 kPa	728 ± 2 kg/m3
7120 kPa	727.9 ± 2 kg/m3
7147 kPa	728 ± 2 kg/m3
7171 kPa	728 ± 2 kg/m3
7193 kPa	728 ± 2 kg/m3
7215 kPa	728.1 ± 2 kg/m3
7235 kPa	728.1 ± 2 kg/m3
7258 kPa	728.1 ± 2 kg/m3
7279 kPa	728.1 ± 2 kg/m3
7295 kPa	728 ± 2 kg/m3
7309 kPa	728.1 ± 2 kg/m3
7326 kPa	728.1 ± 2 kg/m3
7343 kPa	728.2 ± 2 kg/m3
7357 kPa	728.1 ± 2 kg/m3
7371 kPa	728.2 ± 2 kg/m3
7388 kPa	728.3 ± 2 kg/m3
7403 kPa	728.1 ± 2 kg/m3
7422 kPa	728.3 ± 2 kg/m3
7442 kPa	728.3 ± 2 kg/m3
7459 kPa	728.3 ± 2 kg/m3
7474 kPa	728.2 ± 2 kg/m3
7491 kPa	728.3 ± 2 kg/m3
7511 kPa	728.2 ± 2 kg/m3
7532 kPa	728.4 ± 2 kg/m3
7549 kPa	728.3 ± 2 kg/m3
7567 kPa	728.3 ± 2 kg/m3
7588 kPa	728.4 ± 2 kg/m3
7605 kPa	728.4 ± 2 kg/m3
7626 kPa	728.4 ± 2 kg/m3
7644 kPa	728.3 ± 2 kg/m3
7665 kPa	728.5 ± 2 kg/m3
7683 kPa	728.3 ± 2 kg/m3
7699 kPa	728.5 ± 2 kg/m3
7720 kPa	728.4 ± 2 kg/m3
7737 kPa	728.4 ± 2 kg/m3
7756 kPa	728.5 ± 2 kg/m3
7783 kPa	728.5 ± 2 kg/m3
7802 kPa	728.5 ± 2 kg/m3
7819 kPa	728.5 ± 2 kg/m3
7847 kPa	728.5 ± 2 kg/m3
7867 kPa	728.5 ± 2 kg/m3
7880 kPa	728.5 ± 2 kg/m3
7901 kPa	728.6 ± 2 kg/m3
7922 kPa	728.6 ± 2 kg/m3
7936 kPa	728.6 ± 2 kg/m3
7957 kPa	728.7 ± 2 kg/m3
7974 kPa	728.6 ± 2 kg/m3
7993 kPa	728.7 ± 2 kg/m3
8014 kPa	728.6 ± 2 kg/m3
8028 kPa	728.7 ± 2 kg/m3
8052 kPa	728.6 ± 2 kg/m3
8069 kPa	728.7 ± 2 kg/m3
8088 kPa	728.7 ± 2 kg/m3
8105 kPa	728.8 ± 2 kg/m3
8124 kPa	728.7 ± 2 kg/m3
8139 kPa	728.7 ± 2 kg/m3
8157 kPa	728.8 ± 2 kg/m3
8172 kPa	728.9 ± 2 kg/m3
8191 kPa	728.8 ± 2 kg/m3
8214 kPa	728.9 ± 2 kg/m3
8229 kPa	728.9 ± 2 kg/m3
8249 kPa	728.8 ± 2 kg/m3
8265 kPa	728.8 ± 2 kg/m3
8287 kPa	728.9 ± 2 kg/m3
8313 kPa	729 ± 2 kg/m3
8328 kPa	728.9 ± 2 kg/m3
8349 kPa	728.9 ± 2 kg/m3
8365 kPa	729 ± 2 kg/m3
8382 kPa	729.1 ± 2 kg/m3
8400 kPa	729.1 ± 2 kg/m3
8417 kPa	729 ± 2 kg/m3
8439 kPa	728.9 ± 2 kg/m3
8459 kPa	729 ± 2 kg/m3
8476 kPa	729.1 ± 2 kg/m3
8493 kPa	729.1 ± 2 kg/m3
8509 kPa	729 ± 2 kg/m3
8529 kPa	729 ± 2 kg/m3
8546 kPa	729.1 ± 2 kg/m3
8561 kPa	729.2 ± 2 kg/m3
8582 kPa	729.1 ± 2 kg/m3
8601 kPa	729.2 ± 2 kg/m3
8617 kPa	729.2 ± 2 kg/m3
8632 kPa	729.2 ± 2 kg/m3
8647 kPa	729.2 ± 2 kg/m3
8663 kPa	729.2 ± 2 kg/m3
8682 kPa	729.2 ± 2 kg/m3
8699 kPa	729.2 ± 2 kg/m3
8715 kPa	729.2 ± 2 kg/m3
8730 kPa	729.2 ± 2 kg/m3
8742 kPa	729.3 ± 2 kg/m3
8752 kPa	729.3 ± 2 kg/m3
8768 kPa	729.2 ± 2 kg/m3
8778 kPa	729.3 ± 2 kg/m3
8792 kPa	729.2 ± 2 kg/m3
8807 kPa	729.4 ± 2 kg/m3
8821 kPa	729.3 ± 2 kg/m3
8831 kPa	729.3 ± 2 kg/m3
8847 kPa	729.2 ± 2 kg/m3
8862 kPa	729.3 ± 2 kg/m3
8874 kPa	729.2 ± 2 kg/m3
8884 kPa	729.4 ± 2 kg/m3
8895 kPa	729.3 ± 2 kg/m3
8905 kPa	729.3 ± 2 kg/m3
8920 kPa	729.4 ± 2 kg/m3
8936 kPa	729.4 ± 2 kg/m3
8948 kPa	729.4 ± 2 kg/m3
8961 kPa	729.5 ± 2 kg/m3
8973 kPa	729.4 ± 2 kg/m3
8986 kPa	729.4 ± 2 kg/m3
8998 kPa	729.5 ± 2 kg/m3
9014 kPa	729.5 ± 2 kg/m3
9025 kPa	729.4 ± 2 kg/m3
9040 kPa	729.5 ± 2 kg/m3
9051 kPa	729.5 ± 2 kg/m3
9064 kPa	729.4 ± 2 kg/m3
9075 kPa	729.5 ± 2 kg/m3
9092 kPa	729.6 ± 2 kg/m3
9107 kPa	729.6 ± 2 kg/m3
9118 kPa	729.5 ± 2 kg/m3
9133 kPa	729.6 ± 2 kg/m3
9151 kPa	729.6 ± 2 kg/m3
9166 kPa	729.5 ± 2 kg/m3
9179 kPa	729.5 ± 2 kg/m3
9192 kPa	729.6 ± 2 kg/m3
9204 kPa	729.6 ± 2 kg/m3
9219 kPa	729.7 ± 2 kg/m3
9237 kPa	729.6 ± 2 kg/m3
9251 kPa	729.6 ± 2 kg/m3
